Series [1] concerns Diabrotica Balteata (Corn Root Worm). In words: Example B7: activity against Diabrotica balteata, sprayed maize sprouts. It is filed as in vivo. The note with it: 96 h, application rate 200 ppm, L2 larvae, 4 days after infestation, read-out: effect in at least one of the two categories (mortality or growth inhibition). The protocol:
Maize sprouts placed onto an agar layer in 24-well microtiter plates were treated with aqueous test solutions prepared from 10'000 ppm DMSO stock solutions by spraying. After drying, the plates were infested with L2 larvae (6 to 10 per well). The samples were assessed for mortality and growth inhibition in comparison to untreated samples 4 days after infestation.

Series [2] has as its system Euschistus heros (Neotropical Brown Stink Bug). The series can be described thus: Example B6: activity against Euschistus heros, sprayed soybean leaf. It is filed as in vivo. The note with it: 120 h, application rate 200 ppm, N-2 nymphs, 5 days after infestation, read-out: effect in at least one of the two categories (mortality or growth inhibition). The protocol:
Soybean leaf on agar in 24-well microtiter plates were sprayed with aqueous test solutions prepared from 10'000 ppm DMSO stock solutions. After drying the leaf were infested with N-2 nymphs. The samples were assessed for mortality and growth inhibition in comparison to untreated samples 5 days after infestation.

For series [3], the system named is Myzus persicae (Green Peach Aphid). In words: Example B2: activity against Myzus persicae, sprayed sunflower leaf discs. It is filed as in vivo. The note with it: foliar, 144 h, application rate 200 ppm, aphid population of mixed ages, 6 days after infestation. As for the experimental part: Sunflower leaf discs were placed on agar in a 24-well microtiter plate and sprayed with aqueous test solutions prepared from 10'000 ppm DMSO stock solutions. After drying, the leaf discs were infested with an aphid population of mixed ages. The samples were assessed for mortality 6 days after infestation.

Series [4] concerns Frankliniella occidentalis (Western Flower Thrips). The series can be described thus: Example B4: activity against Frankliniella occidentalis, sprayed sunflower leaf discs. It is filed as in vivo. To be noted: foliar, 168 h, application rate 200 ppm, population of mixed ages, 7 days after infestation. The protocol: Sunflower leaf discs were placed on agar in 24-well microtiter plates and sprayed with aqueous test solutions prepared from 10'000 DMSO stock solutions. After drying the leaf discs were infested with a Frankliniella population of mixed ages. The samples were assessed for mortality 7 days after infestation.

Series [5] deals with Bemisia tabaci (Cotton White Fly). The series can be described thus: Example B5: activity against Bemisia tabaci, sprayed cotton leaf discs. To be noted: foliar, 144 h, application rate 200 ppm, adult white flies, 6 days after incubation. It is filed as in vivo. As for the experimental part: Cotton leaf discs were placed on agar in 24-well microtiter plates and sprayed with aqueous test solutions prepared from 10'000 ppm DMSO stock solutions. After drying the leaf discs were infested with adult white flies. The samples were checked for mortality 6 days after incubation.

Series [6] concerns Thrips tabaci (Onion Thrips). The series can be described thus: Example B7: activity against Thrips tabaci, sprayed sunflower leaf discs. It is filed as in vivo. The note with it: foliar, 144 h, application rate 200 ppm, population of mixed ages, 6 days after infestation. The protocol:
Sunflower leaf discs were placed on agar in 24-well microtiter plates and sprayed with aqueous test solutions prepared from 10'000 ppm DMSO stock solutions. After drying the leaf discs were infested with a Thrips population of mixed ages. The samples were assessed for mortality 6 days after infestation.

Series [7] concerns Myzus persicae (Green Peach Aphid). The series can be described thus: Example B3: activity against Myzus persicae, roots of pea seedlings in test solution. To be noted: 144 h, test rate 24 ppm, roots of infested pea seedlings in test solution, 6 days. It counts as in vivo. The protocol:
Roots of pea seedlings infested with an aphid population of mixed ages were placed directly in the aqueous test solutions prepared from 10'000 DMSO stock solutions. The samples were assessed for mortality 6 days after placing seedlings in test solutions.

Series [8] has as its system Spodoptera littoralis (Egyptian Cotton Leaf Worm). In words: Example B7: activity against Spodoptera littoralis, sprayed cotton leaf discs. To be noted: foliar, 72 h, application rate 200 ppm, L1 larvae, 3 days after infestation. It is filed as in vivo. The protocol:
Cotton leaf discs were placed onto agar in 24-well microtiter plates and sprayed with aqueous test solutions prepared from 10'000 ppm DMSO stock solutions. After drying the leaf discs were infested with five L1 larvae. The samples were assessed for mortality, anti-feeding effect, and growth inhibition in comparison to untreated samples 3 days after infestation. Control of Spodoptera littoralis by a test sample is given when at least one of the categories mortality, anti-feedant effect, and growth inhibition is higher than the untreated sample.

In series [9] the test system is Plutella xylostella (Diamond Back Moth). The series can be described thus: Example B1: activity against Plutella xylostella, artificial diet in 24-well plates. It counts as in vivo. To be noted: 120 h, application rate 200 ppm, L2 larvae on artificial diet, 5 days after infestation, read-out: effect in at least one of the two categories (mortality or growth inhibition). The protocol: 24-well microtiter plates with artificial diet were treated with aqueous test solutions prepared from 10'000 ppm DMSO stock solutions by pipetting. After drying, the plates were infested with L2 larvae (10 to 15 per well). The samples were assessed for mortality and growth inhibition in comparison to untreated samples 5 days after infestation.

Series [10] relates to Tetranychus urticae (Two-Spotted Spider Mite). The series can be described thus: Example B7: activity against Tetranychus urticae, sprayed bean leaf discs. It counts as in vivo. The note with it: foliar, 192 h, application rate 200 ppm, mixed population (mobile stages), 8 days after infestation. The protocol: Bean leaf discs on agar in 24-well microtiter plates were sprayed with aqueous test solutions prepared from 10'000 ppm DMSO stock solutions. After drying the leaf discs were infested with a mite population of mixed ages. The samples were assessed for mortality on mixed population (mobile stages) 8 days after infestation.

Series [11] deals with Spodoptera littoralis (Egyptian Cotton Leaf Worm). In words: Example B7: activity against Spodoptera littoralis, compound in agar taken up by lettuce roots. It is filed as in vivo. To be noted: 144 h, test rate 12.5 ppm, systemic via lettuce roots, Spodoptera eggs, 6 days after infestation, read-out: effect in at least one of the three categories (mortality, anti-feeding, or growth inhibition). From the text: Test compounds were applied by pipette from 10'000 ppm DMSO stock solutions into 24-well plates and mixed with agar. Lettuce seeds were placed onto the agar and the multi well plate was closed by another plate which contained also agar. After 7 days the compound was absorbed by the roots and the lettuce grew into the lid plate. The lettuce leaves were then cut off into the lid plate. Spodoptera eggs were pipetted through a plastic stencil onto a humid gel blotting paper and the lid plate was closed with it. The samples were assessed for mortality, anti-feedant effect and growth inhibition in comparison to untreated samples 6 days after infestation.

Where only a bound is given, the exact number is not on record here.

For orientation: mortality means the share of the test organisms that died. A lower mortality goes with more survivors. In general, melting point refers to the temperature, or range, at which the solid turns liquid.

In the case of `CCS(=O)(=O)c1cc(N=S(C)(C)=O)cnc1-c1nc2cc(C(F)(F)F)nnc2n1C` [P9, [5-ethylsulfonyl-6-[7-methyl-3-(trifluoromethyl)imidazo[4,5-c]pyridazin-6-yl]-3-pyridyl]imidno-dimethyl-oxo-λ^6-sulfane], the percent effect (mortality or growth inhibition) at 200 ppm in series [1], in series [2] and in series [9] was ≥ 80% in each case. Moreover, the mortality at 200 ppm in series [3], in [4], in series [5] and in series [6] was ≥ 80% each time. In series [7], the mortality at 24 ppm is ≥ 80%. The percent control (mortality, anti-feedant effect or growth inhibition) at 200 ppm in series [8] is ≥ 80%.

As to `CCS(=O)(=O)c1cc(N=S2(=O)CCOCC2)ccc1-c1nc2cc(C(F)(F)F)nnc2n1C` [P25, 4-[3-ethylsulfonyl-4-[7-methyl-3-(trifluoromethyl)imidazo[4,5-c]pyridazin-6-yl]phenyl]imino-1,4-oxathiane 4-oxide], the melting point lay within 253 to 255 °C.

Consider `CCS(=O)(=O)c1cc(N=S(C)(=O)C2CC2)cnc1-c1nc2cc(C(F)(F)F)ncc2n1C` (stereo not shown) [P3, cyclopropyl-[[5-ethylsulfonyl-6-[3-methyl-6-(trifluoromethyl)imidazo[4,5-c]pyridin-2-yl]-3-pyridyl]imino]-methyl-oxo-λ^6-sulfane], for which the percent effect (mortality or growth inhibition) at 200 ppm in series [1], in series [2] and in series [9] was ≥ 80% throughout. In addition, the mortality at 200 ppm in series [10], in series [3], in [4] and in series [5] was ≥ 80% each time. Moreover, the percent effect (mortality, anti-feeding or growth inhibition) at 12.5 ppm in series [11] is ≥ 80%. Besides, the percent control (mortality, anti-feedant effect or growth inhibition) at 200 ppm in [8] is ≥ 80%.

As for `CCS(=O)(=O)c1cc(N=S2(=O)CCC2)cnc1-c1nc2cc(C(F)(F)F)ncc2n1C` [P11, 1-[[5-ethylsulfonyl-6-[3-methyl-6-(trifluoromethyl)imidazo[4,5-c]pyridin-2-yl]-3-pyridyl]imino]thietane 1-oxide], the percent effect (mortality or growth inhibition) at 200 ppm in series [1], in [2] and in series [9] was ≥ 80% in each case. The mortality at 200 ppm in [10], in [3], in series [4] and in [5] was ≥ 80% throughout. Besides, the mortality at 24 ppm in series [7] is ≥ 80%. The percent control (mortality, anti-feedant effect or growth inhibition) at 200 ppm in series [8] was ≥ 80%.

`CCS(=O)(=O)c1cc(N=S(=O)(CC)CC)cnc1-c1nc2cc(C(F)(F)F)ncc2n1C` [P4, diethyl-[[5-ethylsulfonyl-6-[3-methyl-6-(trifluoromethyl)imidazo[4,5-c]pyridin-2-yl]-3-pyridyl]imino]-oxo-λ^6-sulfane]: the percent effect (mortality or growth inhibition) at 200 ppm in series [1], in series [2] and in series [9] was ≥ 80% throughout. Also, the mortality at 200 ppm in [10], in series [3] and in series [5] was ≥ 80% in each case. Further, in [8], the percent control (mortality, anti-feedant effect or growth inhibition) at 200 ppm was ≥ 80%.

`CCS(=O)(=O)c1cc(N=S(C)(=O)c2ccc(C)cc2)cnc1-c1cn2cnc(C(F)(F)F)cc2n1` (stereo not shown) [P10, [5-ethylsulfonyl-6-[7-(trifluoromethyl)imidazo[1,2-c]pyrimidin-2-yl]-3-pyridyl]imino-methyl-oxo-(p-tolyl)-λ^6-sulfane] showed a melting point of 155 to 157 °C.

As to `CCS(=O)(=O)c1cc(N=S2(=O)CCOCC2)cnc1-c1nc2cc(C(F)(F)F)nnc2n1C` [P23, 4-[[5-ethylsulfonyl-6-[7-methyl-3-(trifluoromethyl)imidao[4,5-c]pyridazin-6-yl]-3-pyridyl]imino]-1,4-oxathiane 4-oxide], the percent effect (mortality or growth inhibition) at 200 ppm in series [2] and in series [9] was ≥ 80% throughout. The mortality at 200 ppm in series [10], in series [3] and in [5] was ≥ 80% throughout. Also, the mortality at 24 ppm in [7] was ≥ 80%.

In the case of `CCS(=O)(=O)c1cc(N=S2CCOCC2)cnc1-c1nc2cc(C(F)(F)F)ncc2n1C` [P26, 2-[3-ethylsulfonyl-5-(1,4-oxathian-4-ylideneamino)-2-pyridyl]-3-methyl-6-(trifluoromethyl)imidazo[4,5-c]pyridine], the melting point is 214 °C (dec.).

In the case of `CCS(=O)(=O)c1cc(N=S(C)(=O)C2CC2)cnc1-c1nc2cc(C(F)(F)F)nnc2n1C` (stereo not shown) [P7, cyclopropyl-[[5-ethylsulfonyl-6-[7-methyl-3-(trifluoromethyl)imidazo[4,5-c]pyridazin-6-yl]-3-pyridyl]imino]-methyl-oxo-λ^6-sulfane], the percent effect (mortality or growth inhibition) at 200 ppm in [1], in series [2] and in [9] was ≥ 80% throughout. Further, the mortality at 200 ppm in [10], in series [3], in series [4] and in series [5] was ≥ 80% each time. Besides, the percent effect (mortality, anti-feeding or growth inhibition) at 12.5 ppm in series [11] is ≥ 80%. Also, the mortality at 24 ppm in [7] is ≥ 80%. In series [8], the percent control (mortality, anti-feedant effect or growth inhibition) at 200 ppm was ≥ 80%.

For the compound `CCS(=O)(=O)c1cc(N=S(C)(C)=O)cnc1-n1cc2cnc(C(F)(F)F)cc2n1` [P16, [5-ethylsulfonyl-6-[6-(trifluoromethyl)pyrazolo[4,3-c]pyridin-2-yl]-3-pyridyl]imino-dimethyl-oxo-λ^6-sulfane], the percent effect (mortality or growth inhibition) at 200 ppm in series [1], in [2] and in series [9] was ≥ 80% in each case. Further, the mortality at 200 ppm in series [3], in [4] and in series [5] was ≥ 80% each time. Moreover, the mortality at 24 ppm in series [7] was ≥ 80%. For the same compound, in series [8], the percent control (mortality, anti-feedant effect or growth inhibition) at 200 ppm was ≥ 80%.

For the origin of these results see patent publication US10961248B2, “Pesticidally active heterocyclic derivatives with sulfur containing substituents” (SYNGENTA PARTICIPATIONS AG, priority 2016, dated 2021).
